{"source": "patent US6326395A", "about": "“Antifungal activity of dicationic molecules” (priority 1999, dated 2001)", "key": {"C. neoformans 114.96": {"system": "C. neoformans 114.96", "assay": "antifungal susceptibility testing (MIC, MFC), extended spectrum", "assay_type": "cell-based, C. neoformans var. neoformans", "conditions": "Cryptococcus neoformans, C. neoformans 114.96, fluconazole-resistant", "from_the_text": "(§1) Antifungal susceptibility testing for compounds set forth in Examples 1-20 is discussed hereinbelow. The fungi that were employed included two reference strains, C. neoformans var. neoformans H99 and C. albicans A39 and the following clinical isolates: (1) two strains of fluconazole-resistant C. neoformans var. neoformans (135.95 and 114.96); (2) two strains of C. neoformans var. gattii (119.95 and 114.95); (3) two strains of fluconazole-resistant C. albicans (102.96 and 103.96); and (4) one strain each of Torulopsis glabrata (142.91), Candida parapsilosis (111.96), Candida krusei (132.91), C. tropicalis (110.96), Candida lusitaniae (111.92), Fusarium solani (152.89), Aspergillus fumigatus (168.95), and Aspergillus flavus (112.96). Antifungal susceptibility testing was performed using an RPMI-1640 medium (Sigma Chemical Co., St. Louis, Mo.) with glutamine, without sodium bicarbonate, and buffered at pH 7.0 with 0.165 M morpholine-propanesulfonic acid (MOPS).\n(§2) In vitro susceptibility testing in the form of Minimum Inhibitory Concentration (MIC) experiments were performed using the broth macrodilution method according to the recommendations of the National Committee for Clinical Laboratory Standards (see 1995 manual). […] Briefly, this procedure specifies an inoculum grown at 35° C. and adjusted to a concentration of 0.5-2.5×10^3 CFU/ml with an incubation of the test performed at 35° C. and reading at 48 hours for all yeasts except for C. neoformans which is interpreted at 72 hr.\n(§3) Minimum Fungicidal Concentration (MFC) experiments were adapted from a method by McGinnis (McGinnis, M. R., (1980) \"Susceptibility testing and bioassay procedure\", p. 431, Academic Press, Inc., New York). […] The lowest drug concentration that yielded three or fewer yeasts colonies was recorded as the MFC. […]\nas §3, with “p.431,” for “p. 431,”, “3” for “three”"}, "C. lusitaniae 111.92": {"system": "C. lusitaniae 111.92", "assay": "antifungal susceptibility testing (MIC, MFC), extended spectrum", "assay_type": "cell-based, Candida lusitaniae", "conditions": "Clavispora lusitaniae", "procedure": "Antifungal susceptibility testing for compounds set forth in Examples 1-20 is discussed hereinbelow. […]\nas §2, §3\nas §3, with “p.431,” for “p. 431,”, “3” for “three”"}, "Cryptococcus neoformans": {"system": "Cryptococcus neoformans", "assay": "in vitro antifungal susceptibility testing (MIC, MFC; broth macrodilution), Tables 1-7", "assay_type": "cell-based", "from_the_text": "as §1, with “The” for “Antifungal susceptibility testing for compounds set forth in Examples 1-20 is discussed hereinbelow. The”\n(§4) In vitro susceptibility testing in the form of Minimum Inhibitory Concentration (MIC) experiments were performed using the broth macrodilution method according to the recommendations of the National Committee for Clinical Laboratory Standards (see 1995 manual). The only difference compared to the standardized procedure was the choice of drug dilutions ranging from 100 to 0.09 μg/ml. Briefly, this procedure specifies an inoculum grown at 35° C. and adjusted to a concentration of 0.5-2.5×10^3 CFU/ml with an incubation of the test performed at 35° C. and reading at 48 hours for all yeasts except for C. neoformans which is interpreted at 72 hr.\n(§5) Minimum Fungicidal Concentration (MFC) experiments were adapted from a method by McGinnis (McGinnis, M. R., (1980) \"Susceptibility testing and bioassay procedure\", p. 431, Academic Press, Inc., New York). Briefly, 10 μl aliquots from tubes with growth inhibition were plated onto Sabouraud agar plates.\n(§6) The fungi that were employed included two quality control reference strains, C. neoformans var. neoformansH99 and C. albicans A39 and the following clinical isolates: (1) four strains of C. neoformans var. neoformans (167.95; 135.95; 114.96; and 133.95) of which three were fluconazole-resistant>64 μg/ml (135.95; 114.96; and 133.95); (2) two strains of C. neoformans var. gattii (119.95 and 114.95); (3) two strains of fluconazole-resistant>64 μg/ml C. albicans (102.96 and 103.96); and (4) one strain each of C. glabrata (142.91), Candida parapsilosis (111.96), Candida krusei (132.91), C. tropicalis (110.96), Candida lusitaniae (111.92), Fusarium solani (152.89), Aspergillus fumigatus (168.95), Rhizopus arrhizus (117.89), Paecilomyces lilacinus (137.90), and Aspergillus flavus (112.96). Antifungal susceptibility testing was performed using an RPMI-1640 medium (Sigma Chemical Co., St. Louis, Mo.) with glutamine, without sodium bicarbonate, and buffered at pH 7.0 with 0.165 M morpholinepropanesulfonic acid (MOPS).\nas §5, with “p.431,” for “p. 431,”"}, "Candida albicans": {"system": "Candida albicans", "assay": "in vitro antifungal susceptibility testing (MIC, MFC; broth macrodilution), Tables 1-7", "assay_type": "cell-based", "from_the_text": "as §1, with “The” for “Antifungal susceptibility testing for compounds set forth in Examples 1-20 is discussed hereinbelow. The”\nas §4, §5, §6\nas §5, with “p.431,” for “p. 431,”"}}, "note": "Where a name gives a salt, the structure may show the parent alone."}
{"smiles": "CC(C)NC(=N)c1ccc2nc(-c3ccc4c(c3)Cc3cc(-c5nc6ccc(C(=N)NC(C)C)cc6[nH]5)ccc3-4)[nH]c2c1", "note": "[Compound 57, 2,7-Bis[2-(5-N-isopropylamidino)benzimidazoyl]fluorene hydrochloride]", "values": [{"measurement": "MFC", "setting": "C. neoformans 114.96", "result": 0.78, "unit": "µg/mL"}, {"measurement": "MIC", "setting": "C. neoformans 114.96; 72 hr, read-out: MIC80", "result": 0.78, "unit": "µg/mL"}, {"measurement": "MFC", "setting": "C. lusitaniae 111.92", "result": 3.12, "unit": "µg/mL"}, {"measurement": "MIC", "setting": "C. lusitaniae 111.92; 48 hours, read-out: MIC80", "result": 0.78, "unit": "µg/mL"}, {"measurement": "MIC", "setting": "Cryptococcus neoformans; 35° C., 72 hr, read-out: MIC80 (Minimum inhibitory concentration 80%)", "result": 0.78, "unit": "µg/mL"}, {"measurement": "MFC", "setting": "Cryptococcus neoformans; Tables 2-7, three or fewer colonies, read-out: MFC (Minimum fungicidal concentration)", "result": 0.78, "unit": "µg/mL"}, {"measurement": "MIC", "setting": "Candida albicans; 35° C., reading at 48 hours, read-out: MIC80 (Minimum inhibitory concentration 80%)", "result": 0.78, "unit": "µg/mL"}, {"measurement": "MFC", "setting": "Candida albicans; three or fewer colonies, read-out: MFC (Minimum fungicidal concentration)", "result": 1.56, "unit": "µg/mL"}]}
